Source: ChEMBL document CHEMBL3991601, “The target landscape of clinical kinase drugs” (Science, 2017)
Calls of active or inactive are those of the source.

Columns and labels:
Midasin = Midasin (Homo sapiens, UniProt Q9NU22)
[1] = target: Casein kinase I isoform epsilon (Homo sapiens, UniProt P49674)
[2] = target: Mitotic checkpoint serine/threonine-protein kinase BUB1 (Homo sapiens, UniProt O43683)
[3] = target: Atypical kinase COQ8A, mitochondrial (Homo sapiens, UniProt Q8NI60)
[4] = target: Mitogen-activated protein kinase 7 (Homo sapiens, UniProt Q13164)
[5] = target: Cyclin-dependent kinase 13 (Homo sapiens, UniProt Q14004)
[6] = target: STE20-like serine/threonine-protein kinase (Homo sapiens, UniProt Q9H2G2)
[7] = target: T1, MAP kinase-activated protein kinase 5 (Homo sapiens, UniProt Q8IW41)
T1 sequence (Q8IW41 whole entry): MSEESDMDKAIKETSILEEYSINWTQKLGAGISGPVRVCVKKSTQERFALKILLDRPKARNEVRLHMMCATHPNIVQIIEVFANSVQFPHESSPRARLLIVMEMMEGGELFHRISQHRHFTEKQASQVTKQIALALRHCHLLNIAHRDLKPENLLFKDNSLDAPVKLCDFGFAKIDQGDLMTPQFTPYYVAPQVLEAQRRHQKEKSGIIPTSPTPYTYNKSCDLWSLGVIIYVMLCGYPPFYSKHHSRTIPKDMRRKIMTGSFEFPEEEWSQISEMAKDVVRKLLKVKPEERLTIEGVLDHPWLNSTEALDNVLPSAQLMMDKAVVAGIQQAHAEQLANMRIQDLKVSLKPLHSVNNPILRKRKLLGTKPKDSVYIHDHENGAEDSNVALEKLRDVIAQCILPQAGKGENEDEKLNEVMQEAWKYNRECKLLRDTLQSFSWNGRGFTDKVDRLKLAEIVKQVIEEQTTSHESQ

[8] = target: T2, Beta-adrenergic receptor kinase 1 (Homo sapiens, UniProt P25098)
T2 sequence (P25098 whole entry): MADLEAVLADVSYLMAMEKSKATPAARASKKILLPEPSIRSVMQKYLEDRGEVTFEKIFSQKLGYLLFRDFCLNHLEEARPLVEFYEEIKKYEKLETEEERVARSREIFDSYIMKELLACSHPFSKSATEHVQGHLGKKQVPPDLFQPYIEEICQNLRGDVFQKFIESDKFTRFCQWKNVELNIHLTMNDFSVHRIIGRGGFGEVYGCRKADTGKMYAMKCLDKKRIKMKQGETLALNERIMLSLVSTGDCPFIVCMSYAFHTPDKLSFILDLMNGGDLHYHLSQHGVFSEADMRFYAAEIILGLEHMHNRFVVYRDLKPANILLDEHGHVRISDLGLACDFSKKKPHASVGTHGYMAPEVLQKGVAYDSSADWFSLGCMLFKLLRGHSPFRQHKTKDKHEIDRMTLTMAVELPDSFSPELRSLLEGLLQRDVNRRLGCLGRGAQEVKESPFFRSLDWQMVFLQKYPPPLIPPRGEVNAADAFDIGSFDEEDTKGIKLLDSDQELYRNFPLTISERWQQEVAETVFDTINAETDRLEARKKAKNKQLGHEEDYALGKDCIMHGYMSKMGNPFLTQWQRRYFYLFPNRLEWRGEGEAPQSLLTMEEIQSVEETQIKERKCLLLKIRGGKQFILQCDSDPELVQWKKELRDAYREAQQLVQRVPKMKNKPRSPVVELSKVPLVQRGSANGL

[9] = target: U5 small nuclear ribonucleoprotein 200 kDa helicase (Homo sapiens, UniProt O75643)
Insulin receptor = Insulin receptor (Homo sapiens, UniProt P06213)
[10] = target: T3, Bone morphogenetic protein receptor type-2 (Homo sapiens, UniProt Q13873)
T3 sequence (Q13873 whole entry): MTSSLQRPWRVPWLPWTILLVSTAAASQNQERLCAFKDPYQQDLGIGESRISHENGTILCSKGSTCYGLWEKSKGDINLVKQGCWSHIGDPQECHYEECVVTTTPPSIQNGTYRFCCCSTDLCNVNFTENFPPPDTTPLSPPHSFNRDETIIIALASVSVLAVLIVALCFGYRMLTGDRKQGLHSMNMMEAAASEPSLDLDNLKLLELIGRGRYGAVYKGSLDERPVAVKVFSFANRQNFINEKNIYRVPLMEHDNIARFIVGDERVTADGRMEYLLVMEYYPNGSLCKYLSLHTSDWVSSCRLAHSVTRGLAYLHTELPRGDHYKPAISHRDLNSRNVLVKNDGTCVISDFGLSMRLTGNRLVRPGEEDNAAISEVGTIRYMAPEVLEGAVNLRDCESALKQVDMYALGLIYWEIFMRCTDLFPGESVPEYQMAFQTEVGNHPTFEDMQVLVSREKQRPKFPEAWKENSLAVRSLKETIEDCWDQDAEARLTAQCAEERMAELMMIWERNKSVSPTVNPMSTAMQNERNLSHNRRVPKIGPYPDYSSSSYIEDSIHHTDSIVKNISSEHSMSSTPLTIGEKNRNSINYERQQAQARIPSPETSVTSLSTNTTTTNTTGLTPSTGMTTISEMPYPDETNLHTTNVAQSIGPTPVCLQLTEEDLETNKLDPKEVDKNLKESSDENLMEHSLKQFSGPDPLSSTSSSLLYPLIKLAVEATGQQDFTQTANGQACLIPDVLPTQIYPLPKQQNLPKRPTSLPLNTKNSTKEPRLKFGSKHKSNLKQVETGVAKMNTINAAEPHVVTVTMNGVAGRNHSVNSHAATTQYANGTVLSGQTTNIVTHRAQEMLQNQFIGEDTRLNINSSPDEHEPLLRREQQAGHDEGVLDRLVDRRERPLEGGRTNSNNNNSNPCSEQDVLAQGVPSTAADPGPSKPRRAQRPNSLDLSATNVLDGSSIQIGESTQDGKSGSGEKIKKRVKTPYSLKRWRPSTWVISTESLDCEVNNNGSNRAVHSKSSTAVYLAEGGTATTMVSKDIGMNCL

[11] = target: Tyrosine-protein kinase BTK (Homo sapiens, UniProt Q06187)
Also: in the data inactive means no Kd found up to 30 µM.

Chain of U5 small nuclear ribonucleoprotein 200 kDa helicase (O75643 whole entry): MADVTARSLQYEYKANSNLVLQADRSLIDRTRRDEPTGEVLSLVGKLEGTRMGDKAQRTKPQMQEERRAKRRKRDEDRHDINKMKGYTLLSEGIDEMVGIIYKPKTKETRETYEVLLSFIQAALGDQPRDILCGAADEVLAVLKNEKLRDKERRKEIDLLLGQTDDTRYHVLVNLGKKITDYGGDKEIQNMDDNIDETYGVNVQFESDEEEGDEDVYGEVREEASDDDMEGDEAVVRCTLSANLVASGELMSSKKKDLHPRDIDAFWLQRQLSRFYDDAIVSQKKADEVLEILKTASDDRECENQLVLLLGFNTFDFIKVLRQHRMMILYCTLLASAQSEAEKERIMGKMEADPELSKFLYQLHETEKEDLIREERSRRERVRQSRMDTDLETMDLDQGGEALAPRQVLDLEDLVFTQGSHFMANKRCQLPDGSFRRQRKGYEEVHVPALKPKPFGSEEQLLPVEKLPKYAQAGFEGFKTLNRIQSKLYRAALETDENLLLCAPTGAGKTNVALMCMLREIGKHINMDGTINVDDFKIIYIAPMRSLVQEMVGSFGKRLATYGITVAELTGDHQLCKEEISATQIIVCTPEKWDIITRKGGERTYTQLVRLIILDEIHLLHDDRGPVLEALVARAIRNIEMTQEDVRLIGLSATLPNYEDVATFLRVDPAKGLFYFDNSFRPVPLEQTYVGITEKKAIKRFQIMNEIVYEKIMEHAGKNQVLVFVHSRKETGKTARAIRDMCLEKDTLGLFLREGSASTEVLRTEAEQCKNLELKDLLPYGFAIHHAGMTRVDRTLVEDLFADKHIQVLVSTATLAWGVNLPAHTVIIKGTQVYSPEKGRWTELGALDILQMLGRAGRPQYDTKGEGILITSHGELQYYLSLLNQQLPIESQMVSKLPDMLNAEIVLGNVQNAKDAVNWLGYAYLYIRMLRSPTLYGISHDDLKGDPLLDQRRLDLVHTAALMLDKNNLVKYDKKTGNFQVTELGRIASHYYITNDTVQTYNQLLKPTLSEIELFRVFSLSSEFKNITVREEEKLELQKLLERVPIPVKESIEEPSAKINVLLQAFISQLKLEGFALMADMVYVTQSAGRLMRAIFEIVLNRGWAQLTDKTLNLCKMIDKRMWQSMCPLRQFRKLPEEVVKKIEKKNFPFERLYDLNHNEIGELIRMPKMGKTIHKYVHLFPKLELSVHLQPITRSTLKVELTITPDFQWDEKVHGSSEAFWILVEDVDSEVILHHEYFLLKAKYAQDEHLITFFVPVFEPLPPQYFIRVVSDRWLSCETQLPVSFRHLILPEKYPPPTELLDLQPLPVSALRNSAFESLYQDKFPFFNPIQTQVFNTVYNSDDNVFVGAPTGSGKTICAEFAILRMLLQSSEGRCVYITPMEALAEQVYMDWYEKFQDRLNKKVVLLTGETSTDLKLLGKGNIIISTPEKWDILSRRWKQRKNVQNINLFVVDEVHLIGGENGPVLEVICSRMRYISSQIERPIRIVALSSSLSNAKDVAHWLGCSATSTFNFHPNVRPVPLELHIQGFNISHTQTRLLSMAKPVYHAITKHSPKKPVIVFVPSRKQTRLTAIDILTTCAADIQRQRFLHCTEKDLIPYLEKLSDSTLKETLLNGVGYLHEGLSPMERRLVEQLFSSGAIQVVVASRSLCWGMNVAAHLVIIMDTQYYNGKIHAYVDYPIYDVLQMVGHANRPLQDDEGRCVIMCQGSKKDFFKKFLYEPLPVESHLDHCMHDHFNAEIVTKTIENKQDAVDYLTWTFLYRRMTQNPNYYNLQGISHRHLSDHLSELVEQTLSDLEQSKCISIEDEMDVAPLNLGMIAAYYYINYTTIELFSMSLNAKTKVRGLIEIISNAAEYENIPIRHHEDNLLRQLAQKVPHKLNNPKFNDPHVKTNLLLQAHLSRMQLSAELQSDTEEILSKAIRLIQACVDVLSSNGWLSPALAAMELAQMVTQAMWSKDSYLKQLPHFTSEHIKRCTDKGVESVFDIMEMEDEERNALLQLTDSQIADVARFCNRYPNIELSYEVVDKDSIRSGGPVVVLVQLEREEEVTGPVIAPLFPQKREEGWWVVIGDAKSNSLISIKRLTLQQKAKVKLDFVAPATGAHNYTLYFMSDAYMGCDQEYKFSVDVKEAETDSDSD
Chain of Mitotic checkpoint serine/threonine-protein kinase BUB1 (O43683 whole entry): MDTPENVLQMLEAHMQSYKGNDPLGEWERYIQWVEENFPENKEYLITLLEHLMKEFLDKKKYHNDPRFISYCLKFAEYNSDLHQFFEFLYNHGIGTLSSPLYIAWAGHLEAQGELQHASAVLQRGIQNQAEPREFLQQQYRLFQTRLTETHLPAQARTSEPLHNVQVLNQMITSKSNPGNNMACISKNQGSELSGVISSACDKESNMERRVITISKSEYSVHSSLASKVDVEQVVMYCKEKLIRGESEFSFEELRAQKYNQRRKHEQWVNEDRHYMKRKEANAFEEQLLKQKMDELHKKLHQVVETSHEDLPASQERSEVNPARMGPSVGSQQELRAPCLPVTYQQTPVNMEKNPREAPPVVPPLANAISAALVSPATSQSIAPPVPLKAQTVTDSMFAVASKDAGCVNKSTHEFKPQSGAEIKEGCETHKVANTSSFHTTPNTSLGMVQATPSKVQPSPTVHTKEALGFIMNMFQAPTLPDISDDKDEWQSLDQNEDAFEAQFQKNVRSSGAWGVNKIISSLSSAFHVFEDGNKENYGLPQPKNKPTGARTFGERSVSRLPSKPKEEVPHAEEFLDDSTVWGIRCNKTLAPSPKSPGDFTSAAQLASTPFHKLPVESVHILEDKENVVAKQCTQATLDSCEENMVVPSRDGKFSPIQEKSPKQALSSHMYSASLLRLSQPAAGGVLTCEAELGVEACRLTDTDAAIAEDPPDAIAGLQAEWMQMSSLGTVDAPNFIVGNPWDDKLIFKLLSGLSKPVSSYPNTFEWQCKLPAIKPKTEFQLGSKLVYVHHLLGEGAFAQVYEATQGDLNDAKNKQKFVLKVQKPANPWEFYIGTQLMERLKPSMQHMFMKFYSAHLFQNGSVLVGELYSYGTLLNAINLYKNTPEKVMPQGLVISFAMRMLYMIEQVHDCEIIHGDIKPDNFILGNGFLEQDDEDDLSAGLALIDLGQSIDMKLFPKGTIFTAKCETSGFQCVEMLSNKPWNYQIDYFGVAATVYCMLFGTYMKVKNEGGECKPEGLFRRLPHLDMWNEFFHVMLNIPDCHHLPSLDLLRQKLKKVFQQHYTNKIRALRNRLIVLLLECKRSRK
Chain of Insulin receptor (P06213 28-758 limits assumed): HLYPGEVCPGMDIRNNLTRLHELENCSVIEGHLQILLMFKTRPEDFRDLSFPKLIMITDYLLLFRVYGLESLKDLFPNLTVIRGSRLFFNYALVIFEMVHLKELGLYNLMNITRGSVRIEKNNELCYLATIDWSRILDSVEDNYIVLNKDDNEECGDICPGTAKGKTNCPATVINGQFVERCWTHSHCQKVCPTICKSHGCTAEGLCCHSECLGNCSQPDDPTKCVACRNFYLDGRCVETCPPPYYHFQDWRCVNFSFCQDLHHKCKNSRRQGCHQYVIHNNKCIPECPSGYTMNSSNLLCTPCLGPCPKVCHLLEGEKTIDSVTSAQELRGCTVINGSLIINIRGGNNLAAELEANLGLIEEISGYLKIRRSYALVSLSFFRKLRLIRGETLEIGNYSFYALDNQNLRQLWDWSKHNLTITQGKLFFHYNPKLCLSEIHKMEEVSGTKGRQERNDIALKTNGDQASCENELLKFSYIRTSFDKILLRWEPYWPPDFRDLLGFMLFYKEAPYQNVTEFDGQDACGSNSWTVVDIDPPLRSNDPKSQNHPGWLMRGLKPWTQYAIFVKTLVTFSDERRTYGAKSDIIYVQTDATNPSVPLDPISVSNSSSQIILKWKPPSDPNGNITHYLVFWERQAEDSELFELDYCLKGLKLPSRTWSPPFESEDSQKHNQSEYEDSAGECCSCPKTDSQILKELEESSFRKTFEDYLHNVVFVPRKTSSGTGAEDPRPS
Chain of Insulin receptor (P06213 763-1382 limits assumed): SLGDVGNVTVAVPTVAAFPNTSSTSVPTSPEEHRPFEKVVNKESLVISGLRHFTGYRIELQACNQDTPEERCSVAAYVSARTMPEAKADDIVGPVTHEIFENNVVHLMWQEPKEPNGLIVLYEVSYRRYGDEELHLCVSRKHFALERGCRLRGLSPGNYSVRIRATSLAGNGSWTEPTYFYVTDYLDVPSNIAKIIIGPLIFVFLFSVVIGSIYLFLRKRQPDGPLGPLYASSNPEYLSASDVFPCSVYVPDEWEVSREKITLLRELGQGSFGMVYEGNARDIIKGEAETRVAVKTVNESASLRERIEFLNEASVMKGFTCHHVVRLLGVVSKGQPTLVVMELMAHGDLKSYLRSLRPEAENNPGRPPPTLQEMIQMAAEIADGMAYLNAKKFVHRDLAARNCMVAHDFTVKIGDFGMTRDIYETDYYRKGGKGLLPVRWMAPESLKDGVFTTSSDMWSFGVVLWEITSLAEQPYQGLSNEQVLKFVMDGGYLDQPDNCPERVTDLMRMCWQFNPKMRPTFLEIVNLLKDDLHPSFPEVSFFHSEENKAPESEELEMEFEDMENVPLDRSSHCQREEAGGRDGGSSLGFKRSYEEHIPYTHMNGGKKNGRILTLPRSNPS
Chain of Casein kinase I isoform epsilon (P49674 whole entry, canonical isoform): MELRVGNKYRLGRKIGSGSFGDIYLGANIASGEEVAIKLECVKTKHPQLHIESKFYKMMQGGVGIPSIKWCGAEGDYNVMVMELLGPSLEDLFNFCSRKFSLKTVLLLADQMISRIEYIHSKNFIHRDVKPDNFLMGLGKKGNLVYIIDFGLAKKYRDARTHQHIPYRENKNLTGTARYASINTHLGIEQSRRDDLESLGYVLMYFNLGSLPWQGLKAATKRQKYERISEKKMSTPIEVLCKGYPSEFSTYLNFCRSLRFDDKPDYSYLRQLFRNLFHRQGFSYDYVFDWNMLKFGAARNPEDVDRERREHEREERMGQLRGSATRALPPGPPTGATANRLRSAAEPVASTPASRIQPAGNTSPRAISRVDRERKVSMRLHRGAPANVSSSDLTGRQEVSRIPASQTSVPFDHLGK

Row | Structure (SMILES) | Kd (Midasin) | Kd [1] | Kd [2] | Kd [3] | Kd [4] | Kd [5] | Kd [6] | Kd [7] | Kd [8] | Kd [9] | Kd (Insulin receptor) | Kd [10] | Kd [11]
1 | COc1ccc(-c2ccc3ncc4c(c3c2)n(-c2ccc(N3CCNCC3)c(C(F)(F)F)c2)c(=O)n4C)cn1 [BGT-226 FREE BASE] | > 30 µM (inactive) | > 30 µM (inactive) | > 30 µM (inactive) | > 30 µM (inactive) | > 30 µM (inactive) | > 30 µM (inactive) | > 30 µM (inactive) | > 30 µM (inactive) | > 30 µM (inactive) | > 30 µM (inactive) | > 30 µM (inactive) | > 30 µM (inactive) | > 30 µM (inactive)
2 | C=CC(=O)Nc1cc(Nc2nccc(-c3cn(C)c4ccccc34)n2)c(OC)cc1N(C)CCN(C)C [OSIMERTINIB] | > 30 µM (inactive) | > 30 µM (inactive) | > 30 µM (inactive) | > 30 µM (inactive) | > 30 µM (inactive) | > 30 µM (inactive) | > 30 µM (inactive) | > 30 µM (inactive) | > 30 µM (inactive) | > 30 µM (inactive) | > 30 µM (inactive) | > 30 µM (inactive) | 0.525 µM (active)
3 | Cc1c(Cn2c(C)nc3c(C(=O)O)cc(N4CCOCC4)cc32)cccc1C(F)(F)F [GSK-2636771] | > 30 µM (inactive) | > 30 µM (inactive) | > 30 µM (inactive) | > 30 µM (inactive) | > 30 µM (inactive) | > 30 µM (inactive) | > 30 µM (inactive) | > 30 µM (inactive) | > 30 µM (inactive) | > 30 µM (inactive) | > 30 µM (inactive) | > 30 µM (inactive) | > 30 µM (inactive)
4 | COc1cc2ncnc(Nc3ccc(F)c(Cl)c3)c2cc1NC(=O)/C=C/CN1CCCCC1 [DACOMITINIB ANHYDROUS] | > 30 µM (inactive) | > 30 µM (inactive) | > 30 µM (inactive) | > 30 µM (inactive) | > 30 µM (inactive) | > 30 µM (inactive) | > 30 µM (inactive) | > 30 µM (inactive) | > 30 µM (inactive) | > 30 µM (inactive) | > 30 µM (inactive) | > 30 µM (inactive) | > 30 µM (inactive)
5 | COc1ccc2c(OCc3nnc4ccc(-c5ccccc5)nn34)ccnc2c1 [AMG-208] | > 30 µM (inactive) | > 30 µM (inactive) | > 30 µM (inactive) | > 30 µM (inactive) | > 30 µM (inactive) | > 30 µM (inactive) | > 30 µM (inactive) | > 30 µM (inactive) | > 30 µM (inactive) | > 30 µM (inactive) | > 30 µM (inactive) | > 30 µM (inactive) | > 30 µM (inactive)

Results, then the compound that gave them:

Row | Kd (Midasin) | Kd [1] | Kd [2] | Kd [3] | Kd [4] | Kd [5] | Kd [6] | Kd [7] | Kd [8] | Kd [9] | Kd (Insulin receptor) | Kd [10] | Kd [11] | Structure (SMILES)
6 | > 30 µM (inactive) | > 30 µM (inactive) | > 30 µM (inactive) | > 30 µM (inactive) | > 30 µM (inactive) | > 30 µM (inactive) | > 30 µM (inactive) | > 30 µM (inactive) | > 30 µM (inactive) | > 30 µM (inactive) | > 30 µM (inactive) | > 30 µM (inactive) | > 30 µM (inactive) | COc1cc2ncnc3c2cc1OCCCCCN(C)Cc1ccc(Br)cc1N3 [JNJ-26483327]
7 | > 30 µM (inactive) | > 30 µM (inactive) | > 30 µM (inactive) | > 30 µM (inactive) | > 30 µM (inactive) | > 30 µM (inactive) | > 30 µM (inactive) | > 30 µM (inactive) | > 30 µM (inactive) | > 30 µM (inactive) | > 30 µM (inactive) | > 30 µM (inactive) | > 30 µM (inactive) | O=C(Nc1ccc(OC(F)(F)F)cc1)c1sccc1NCc1ccnc2ccccc12 [OSI-930]
8 | > 30 µM (inactive) | > 30 µM (inactive) | > 30 µM (inactive) | > 30 µM (inactive) | > 30 µM (inactive) | > 30 µM (inactive) | > 30 µM (inactive) | > 30 µM (inactive) | > 30 µM (inactive) | > 30 µM (inactive) | > 30 µM (inactive) | > 30 µM (inactive) | > 30 µM (inactive) | O=C(NC[C@H](O)CO)c1ccncc1Nc1ccc(I)cc1F [PIMASERTIB]
9 | > 30 µM (inactive) | > 30 µM (inactive) | 2.91 µM (active) | > 30 µM (inactive) | > 30 µM (inactive) | > 30 µM (inactive) | 1.05 µM (active) | > 30 µM (inactive) | > 30 µM (inactive) | > 30 µM (inactive) | > 30 µM (inactive) | > 30 µM (inactive) | > 30 µM (inactive) | C#Cc1cccc(Nc2ncnc3cc4c(cc23)OCCOCCOCCO4)c1 [ICOTINIB]
